Assay results: patent publication US10934297B2, “5-heteroaryl substituted indazole-3-carboxamides and preparation and use thereof” (Samumed, LLC, priority 2018, dated 2021)

Experiments:
[1] = system: Wnt activity (Sp5-Luc reporter in SW480 cells); test: Screening assay for Wnt activity: Sp5-Luc reporter gene assay in SW480 colon carcinoma cells; assay type: cell-based, human; details: Homo sapiens, 36 to 48 hours
Description: The screening assay for Wnt activity is described as follows. Reporter cell lines can be generated by stably transducing cancer cell lines (e.g., colon cancer) or primary cells (e.g., IEC-6 intestinal cells) with a lentiviral construct that includes a Wnt-responsive promoter driving expression of the firefly luciferase gene.
SW480 colon carcinoma cells were transduced with a lentiviral vector expressing luciferase with a human Sp5 promoter consisting of a sequence of eight TCF/LEF binding sites. SW480 cells stably expressing the Sp5-Luc reporter gene and a hygromycin resistance gene were selected by treatment with 150 μg/mL of hygromycin for 7 days. These stably transduced SW480 cells were expanded in cell culture and used for all further screening activities. […] For Sp5-Luc reporter gene assays, the cells were plated at 4,000 cells/well in 384-well plates with a DMEM medium containing 1% fetal bovine serum, and 1% Penicillin-Streptomycin and incubated for 36 to 48 hours at 37° C. and 5% CO2. Following incubation, 15 μl of BriteLite Plus luminescence reagent (Perkin Elmer) was added to each well of the 384-well assay plates. The plates were placed on an orbital shaker for 2 min and then luminescence was quantified using the Envision (Perkin Elmer) plate reader. Readings were normalized to DMSO only treated cells, and normalized activities were utilized for EC50 calculations using the dose-response log (inhibitor) vs. response-variable slope (four parameters) nonlinear regression feature available in GraphPad Prism 5.0 (or Dotmatics).

GSK3β kinase = GSK3β kinase (Homo sapiens (Human), UniProt P49841); test: GSK3β kinase assay (Ser/Thr 09 peptide Z-lyte FRET); assay type: biochemical; details: read-out: EC50 (method: IC50)
Method: Representative compounds were screened using the assay procedure for GSK3β kinase activity as described below.
This is a non-radioactive assay using fluorescence resonance energy transfer (FRET) between coumarin and fluorescein to detect kinase activity which is represented as ratio of coumarin emission/fluorescein emission.
The mixture is allowed to incubate with the representative compounds for one hour at room temperature. All reactions were performed in duplicate. Unphosphorylated (“0% Control”) and phosphorylated (“100% control”) forms of Ser/Thr 18 serve as control reactions.
After incubation, diluted Development Buffer is added to the reaction and allowed to further incubate for one hour at room temperature.
Dose-response curves are generated and inhibitory concentration (IC50) values are calculated using non-linear regression curve fit in the Dotmatics' Studies Software (Bishops Stortford, UK).

DYRK1A kinase = DYRK1A kinase (Homo sapiens (Human), UniProt Q13627); test: DYRK1A kinase assay (Ser/Thr 18 peptide Z-lyte FRET); assay type: biochemical; details: read-out: EC50 (method: IC50)
Method: Representative compounds were screened using the assay procedure for DYRK1A kinase activity as described below.
This is a non-radioactive assay using fluorescence resonance energy transfer (FRET) between coumarin and fluorescein to detect kinase activity which is represented as a ratio of coumarin emission/fluorescein emission.
The mixture was allowed to incubate with the representative compounds for one hour at room temperature. All reactions were performed in duplicate. Unphosphorylated (“0% Control”) and phosphorylated (“100% control”) forms of Ser/Thr 18 served as control reactions. Additionally, an 11-point dose-response curve of Staurosporine (1 uM top) was run to serve as a positive compound control.
After incubation, Development Reagent A was diluted in Development Buffer then added to the reaction and allowed to further incubate for one hour at room temperature.

IL-6 = IL-6 inhibition in LPS-stimulated human peripheral blood mononuclear cells (HTRF); assay type: cell-based; details: Homo sapiens, PBMC; for EC50: huPBMCs, LPS 50 ng/mL, 22 hours, IL-6 HTRF; for inhibition at 10 µM: read-out: percent inhibition at 10 μM
Method: Fresh Normal PB MNC (Catalog #PB001, AllCells, Alameda, Calif.) were shipped overnight at 4° C. and resuspended in Roswell Park Memorial Institute (RPMI) 1640 Medium, with GlutaMAX Supplement (Catalog #61870127, ThermoFisher Scientific, Waltham, Mass.) supplemented with 1% Penicillin-Streptomycin (Catalog #15140163. ThermoFisher Scientific, Waltham, Mass.) and 1% fetal bovine serum (FBS) (Catalog #16140089, ThermoFisher Scientific, Waltham, Mass.) assay media. Fresh normal human peripheral blood mononuclear cells (huPBMCs) were resuspended in 1% FBS-RPMI assay media with 1% Penicillin-Streptomycin 1% to a cell concentration of 1×10e6 cells/mL. […] 50 ng/mL of Lipopolysaccharides from Escherichia coli 0111:B4 (Catalog #L5293-2ML, Sigma-Aldrich, St. Louis, Mo.) was added after 2 hours and cells were incubated for another 22 hours at 37° C.-5% CO2. After 22 hour incubation, a mixture of anti-IL6 XL665 and anti-IL-6 Cryptate diluted in reconstitution buffer (Catalog #62IL6PEC, Cisbio Inc., Bedford, Mass.) was added to each well. Following incubation for 3 hours at room temperature, Homogeneous Time-Resolved Fluorescence (HTRF) was measured using the Envision (Perkin Elmer, Shelton, Conn.) at 665 nm and […]. The ratio of fluorescence at 665 nm to 620 nm was used as a readout for IL-6 quantification. All samples were processed in duplicate. Readings were normalized to DMSO treated cells and normalized activities were utilized for EC50 calculations.

[2] = system: SW480 colon carcinoma cells; test: Cell viability assay (CellTiter-Glo) in SW480 colon carcinoma cells; assay type: cell-based, human; details: Homo sapiens, 96 h, four days
Method: Representative compounds were screened using the assay procedure to assess the effect on cell viability as described below.
SW480 colon carcinoma cells were transduced with a lentiviral vector expressing luciferase with a human Sp5 promoter consisting of a sequence of eight TCF/LEF binding sites. SW480 cells stably expressing the Sp5-Luc reporter gene and a hygromycin resistance gene were selected by treatment with 150 μg/mL of hygromycin for 7 days. These stably transduced SW480 cells were expanded in cell culture and used for all further screening activities.
For the Cell Viability Assays, the cells were plated at 2,000 cells/well in 384-well plates with a DMEM medium containing 1% fetal bovine serum, and 1% Penicillin-Streptomycin and incubated for […] at 37° C. and 5% CO2. Eight replicates of DMSO-treated cells served as controls and cells treated with compound were performed in duplicate.
After incubation, 10 μL of CellTiter-Glo (Promega) was added to each well allowed to incubate for approximately 12 minutes. This reagent “results in cell lysis and generation of a luminescent signal proportional to the amount of ATP present. The amount of ATP is directly proportional to the number of cells present in culture, in agreement with previous reports. The CellTiter-Glo® Assay generates a “glow-type” luminescent signal, produced by the luciferase reaction (Promega.com)”.

[3] = system: primary human fibroblasts derived from IPF patients (LL29 cells); test: Inhibition of the fibrotic process: αSMA staining in TGF-β1 treated LL29 fibroblasts; assay type: cell-based; details: Homo sapiens, Fibroblast, 96 h; LL29 cells, TGF-β1 20 ng/mL, 4 days, % αSMA positive cells
Method: Representative compounds were screened using primary human fibroblasts (derived from IPF patients) treated with TGF-β1 to determine their ability to inhibit the fibrotic process.
LL29 cells were plated at 1,500 cells/well in 70 μL/well F12 medium supplemented with 1% Fetal Bovine Serum. […] Wells treated with TGF-β1 and containing DMSO were used as positive control, and cells with only DMSO were negative control. […] Following incubation for 4 days, SYTOX green nucleic acid stain (Life Technologies [Thermo Fisher Scientific]) was added to the wells at a final concentration of 1 μM and incubated at room temperature for 30 min.

GSK3β kinase, sequence (P49841 whole entry): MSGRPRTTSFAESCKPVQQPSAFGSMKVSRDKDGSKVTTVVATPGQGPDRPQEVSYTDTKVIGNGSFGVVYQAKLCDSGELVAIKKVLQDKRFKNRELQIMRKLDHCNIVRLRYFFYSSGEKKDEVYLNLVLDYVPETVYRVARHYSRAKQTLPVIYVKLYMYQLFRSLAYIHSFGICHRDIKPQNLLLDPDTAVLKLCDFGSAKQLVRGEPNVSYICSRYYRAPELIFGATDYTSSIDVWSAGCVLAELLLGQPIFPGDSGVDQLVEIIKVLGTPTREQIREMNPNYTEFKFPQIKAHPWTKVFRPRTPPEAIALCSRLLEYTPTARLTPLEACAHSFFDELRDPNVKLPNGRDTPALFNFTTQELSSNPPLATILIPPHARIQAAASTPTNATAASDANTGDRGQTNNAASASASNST

| EC50 [1] [nM] | IC50 (GSK3β kinase) [nM] | IC50 (DYRK1A kinase) [nM] | EC50 (IL-6) [nM] | EC50 [2] [nM] | SMILES | EC50 [3] [nM] | inhibition at 10 µM (IL-6) [%] |
| --- | --- | --- | --- | --- | --- | --- | --- |
| > 10000 | 58 | 36 | 3550 | 2600 | Cn1cc(-c2cc3c(C(=O)NC4CCC(F)(F)CC4)n[nH]c3cc2F)cn1 [Compound 15, N-(4,4-Difluorocyclohexyl)-6-fluoro-5-(1-methyl-1H-pyrazol-4-yl)-1H-indazole-3-carboxamide] | 3320 |  |
| 801 | 60 | 121 | 3820 | 7460 | CCn1cc(-c2ccc3[nH]nc(C(=O)NC4CCC(F)(F)CC4)c3c2)cn1 [Compound 18, N-(4,4-Difluorocyclohexyl)-5-(1-ethyl-1H-pyrazol-4-yl)-1H-indazole-3-carboxamide] | 950 |  |
| 1050 | 64 | 117 | 3680 | 3070 | O=C(NC1CCC(F)(F)CC1)c1n[nH]c2ccc(-c3cnn(C4CC4)c3)cc12 [Compound 19, 5-(1-Cyclopropyl-1H-pyrazol-4-yl)-N-(4,4-difluorocyclohexyl)-1H-indazole-3-carboxamide] | 1180 |  |
| > 10000 | 21 | 13 | > 10000 | > 10000 | Cc1c(-c2ccc3[nH]nc(C(=O)NC4CCC(F)(F)CC4)c3c2)cnn1C [Compound 20, N-(4,4-Difluorocyclohexyl)-5-(1,5-dimethyl-1H-pyrazol-4-yl)-1H-indazole-3-carboxamide] | 3410 | 36.4 |
| > 10000 | 903 | 1820 | > 10000 | > 10000 | Cc1nn(C)cc1-c1ccc2[nH]nc(C(=O)NC3CCC(F)(F)CC3)c2c1 [Compound 21, N-(4,4-Difluorocyclohexyl)-5-(1,3-dimethyl-1H-pyrazol-4-yl)-1H-indazole-3-carboxamide] | 294 | 15.5 |
| 2010 | 61 | 25 | > 10000 | > 10000 | Cc1ncc(-c2ccc3[nH]nc(C(=O)NC4CCC(F)(F)CC4)c3c2)n1C [Compound 22, N-(4,4-Difluorocyclohexyl)-5-(1,2-dimethyl-1H-imidazol-5-yl)-1H-indazole-3-carboxamide] | 2200 | 10.2 |
| 768 | 5 | 1 | 345 | 409 | Cn1cc(-c2ccc3[nH]nc(C(=O)N[C@H]4CC[C@H](CN5CC(F)C5)CC4)c3c2)cn1 [Compound 23, N-((1R,4R)-4-((3-Fluoroazetidin-1-yl)methyl)cyclohexyl)-5-(1-methyl-1H-pyrazol-4-yl)-1H-indazole-3-carboxamide] | 149 |  |
| 1340 | 22 | 2 | 419 | 829 | Cn1cc(-c2cc3c(C(=O)N[C@H]4CC[C@H](CN5CC(F)C5)CC4)n[nH]c3cc2F)cn1 [Compound 24, 6-fluoro-N-((1R,4R)-4-((3-fluoroazetidin-1-yl)methyl)cyclohexyl)-5-(1-methyl-1H-pyrazol-4-yl)-1H-indazole-3-carboxamide] | 125 |  |
| 1180 | 34 | 5 | 1040 | 849 | O=C(N[C@H]1CC[C@H](CN2CC(F)C2)CC1)c1n[nH]c2ccc(-c3cnn(C4CC4)c3)cc12 [Compound 26, 5-(1-Cyclopropyl-1H-pyrazol-4-yl)-N-((1R,4R)-4-((3-fluoroazetidin-1-yl)methyl)cyclohexyl)-1H-indazole-3-carboxamide] | > 10000 |  |
| 677 | 12 | 4 | 3820 | 6450 | O=C(N[C@H]1CC[C@H](CN2CC(F)C2)CC1)c1n[nH]c2ccc(-c3cnn4c3CCCC4)cc12 [Compound 27, N-((1R,4R)-4-((3-Fluoroazetidin-1-yl)methyl)cyclohexyl)-5-(4,5,6,7-tetrahydropyrazolo[1,5-a]pyridin-3-yl)-1H-indazole-3-carboxamide] | 346 |  |
| 688 | 11 | 2 | 401 | 442 | Cn1cc(-c2ccc3[nH]nc(C(=O)N[C@H]4CC[C@H](CN5CCCC5)CC4)c3c2)cn1 [Compound 28, 5-(1-Methyl-1H-pyrazol-4-yl)-N-((1R,4R)-4-(pyrrolidin-1-ylmethyl)cyclohexyl)-1H-indazole-3-carboxamide] | 409 |  |
| 610 | 55 | 26 | 4260 | > 10000 | CC(C)CN1CC[C@@H](NC(=O)c2n[nH]c3ccc(-c4cnn(C)c4)cc23)[C@@H](F)C1 [Compound 31, N-((3S,4R)-3-Fluoro-1-isobutylpiperidin-4-yl)-5-(1-methyl-1H-pyrazol-4-yl)-1H-indazole-3-carboxamide] | 2460 |  |
| 1830 | 31 | 5 | 1270 | 1320 | CC(C)CN1CC[C@@H](NC(=O)c2n[nH]c3ccc(-c4cnn(C)c4)cc23)[C@H](F)C1 [Compound 32, N-((3R,4R)-3-Fluoro-1-isobutylpiperidin-4-yl)-5-(1-methyl-1H-pyrazol-4-yl)-1H-indazole-3-carboxamide] | 372 |  |
